Reference: patent publication US4182877A, “Substituted anthranilates” (Commonwealth Scientific and Industrial Research Organization, priority 1976, dated 1980)
Converted amounts (≈) assume the structure as drawn.

Test system: Tilletia foetida
Assay: In vitro inhibition of germination of Tilletia foetida (wheat smut) spores on agar medium
Format: cell-based
Settings: Tilletia laevis, 10° C. in the dark, 8-9 days, tested at 5, 10, 25, 50, 100 and 150 ppm, spores germinated as percentage of control, read-out: Minimum inhibitory concentration (ppm) which reduces germination to <20% control
Method: In vitro assays using compounds of the formula I were carried out as follows. An agar medium prepared from Difco "Bacto-Agar" and distilled water was sterilised in an autoclave. Aliquots of the test compounds in acetone solution were added to two duplicate samples of the medium to give final concentrations of 5, 10, 25, 50, 100 and 150 ppm, and the resulting solutions poured into sterilised petri dishes and inoculated with Tilletia foetida (wheat smut) from the kernels of infected wheat. […] The inhibition of germination due to the test compounds was then determined by estimating (microscope) the spores germinated as a percentage of control.

Q: For `CCOC(=O)c1c(Cl)cc(C)cc1N(C)C` [Compound 1, Ethyl 6-chloro-4,N,N-trimethylanthranilate], which MIC is on record?
A: 25 µg/mL (≈ 103 µM)

Q: How did the MIC turn out when `CCOC(=O)c1c(Cl)c(Cl)c(C)c(Cl)c1N(C)C` [Compound 3, Ethyl 3,5,6-trichloro-4,N,N-trimethylanthranilate] was run?
A: 5 µg/mL (≈ 16.1 µM)

Q: `CCOC(=O)c1c(N(C)C)cc(C)c(SC#N)c1Cl` [Compound 4, Ethyl 6-chloro-4,N,N-trimethyl-5-thiocyanoanthranilate] was tested. Which MIC did it give?
A: < 5 µg/mL

Q: `CCOC(=O)c1c(N(CC)CC)cc(C)c(SC#N)c1Cl` [Compound 5] was tested. Which MIC did it give?
A: 10 µg/mL (≈ 30.6 µM)

Q: How did the MIC turn out when `CCOC(=O)c1c(N(C)C)cc(C)c([N+](=O)[O-])c1Cl` [Compound 6, Ethyl-6-chloro-4,N,N-trimethyl-5-nitroanthranilate] was run?
A: < 5 µg/mL

Q: How did the MIC turn out when `CCOC(=O)c1c(N(CC)CC)cc(C)c([N+](=O)[O-])c1Cl` [Compound 7] was run?
A: 25 µg/mL (≈ 79.4 µM)

Q: For `CCOC(=O)c1c(Cl)cc(C)cc1N(CC)CC` [R^1 = R^2 = R^3 = Et], which MIC is on record?
A: 25 µg/mL (≈ 92.7 µM)
